Data from PubChem BioAssay (NCI).
Values joined by “and” are separate entries in the source; they are usually repeats but may differ in a detail not shown here. Equal values may be shown once.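 Cultured in 96-well plates, cells were exposed to test compound for 48 hours across five concentrations. GI50 marks 50% less growth. The concentration for full growth arrest is given as TGI.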

What was measured:
Assay in all cases: NCI tumour cell line growth inhibition, 48 h
DLD-1 colon = tested on: DLD-1 colon
DMS 114 small cell lung = tested on: DMS 114 small cell lung
HOP-18 NSCLC = tested on: HOP-18 NSCLC
KM20L2 colon = tested on: KM20L2 colon
M19-MEL melanoma = tested on: M19-MEL melanoma
MDA-N = tested on: MDA-N
RXF-631 renal = tested on: RXF-631 renal
SNB-78 CNS = tested on: SNB-78 CNS
XF 498 CNS = tested on: XF 498 CNS
P388/ADR leukemia = tested on: P388/ADR leukemia
SN12K1 renal = tested on: SN12K1 renal

Row | Structure (SMILES) | TGI (DLD-1 colon) | TGI (DMS 114 small cell lung) | TGI (HOP-18 NSCLC) | TGI (KM20L2 colon) | TGI (M19-MEL melanoma) | TGI (MDA-N) [µM] | TGI (RXF-631 renal) [µM] | TGI (SNB-78 CNS) | TGI (XF 498 CNS) | other results
1 | COc1cc(OC(=O)c2ccccc2)cc2c1C(=O)C=CC2=O | 35.5 µM | 30.2 µM | 41.5 µM | > 100 µM | 25.9 µM | 18.8 | 41.5 | 41.4 µM | 31.4 µM | –
2 | N#CC(NC12CC3CC(CC(C3)C1)C2)c1ccc2c(c1)OCO2 (stereo unspecified) | – | – | – | – | – | > 100 | – | – | – | –
3 | CCOc1ccc2c(c1)[n+]([O-])c(-c1ccc(Cl)cc1)c(N)[n+]2[O-] | > 100 µM | > 100 µM | > 100 µM | > 100 µM | – | – | – | > 100 µM | – | –
4 | CC1CCC(NC(=O)N(CCCl)N=O)CC1 (stereo unspecified) | 47.7 µM and 79.4 µM | 40.4 µM and 87.3 µM | 62.8 µM | 120 µM | 98 µM | 90.1 | – | 88.7 µM and 110 µM | 43.5 µM and 81.2 µM | GI50 (DLD-1 colon): 22.3 µM; GI50 (DMS 114 small cell lung): 19 µM; GI50 (KM20L2 colon): 44.7 µM; GI50 (M19-MEL melanoma): 53.1 µM; TGI (P388/ADR leukemia): 56.8 µM; TGI (SN12K1 renal): 67 µM; GI50 (SNB-78 CNS): 20.1 µM; GI50 (XF 498 CNS): 16.4 µM
5 | COc1cc(C[C@H]2c3cc(OC)c(OC)cc3CCN2C)c(Oc2cc3c(cc2OC)-c2c(OC)c(OC)cc4c2[C@H](C3)N(C)CC4)cc1OC | 40.8 µM and 28.3 µM | 18 µM and 14.4 µM | 40.9 µM and 29.9 µM | 13.5 µM and 7.75 µM | 16.8 µM and 24.6 µM | 13.1 | 19.8 | – | 16.4 µM and 16.3 µM | GI50 (DMS 114 small cell lung): 4 µM; GI50 (HOP-18 NSCLC): 20.1 µM and 15.8 µM; GI50 (KM20L2 colon): 2.32 µM; GI50 (M19-MEL melanoma): 11.9 µM; TGI (P388/ADR leukemia): 27.9 µM; TGI (SN12K1 renal): 15.4 µM; GI50 (XF 498 CNS): 6.8 µM
6 | CCC1C2Cc3ccc(O)cc3C1(CC)CCN2C (stereo unspecified) | – | – | – | – | – | > 100 | – | – | – | –
7 | CN1C(=Nc2ccccc2)SC1=Nc1ccccc1 | > 100 µM | > 100 µM | > 100 µM | – | 65.2 µM | – | – | > 100 µM | 73.3 µM | –
8 | CCOc1ccccc1N1C(=O)C(=O)C(c2nc3ccccc3o2)C(=O)C1=O | > 100 µM | > 100 µM | > 100 µM | > 100 µM | > 100 µM | – | > 100 | > 100 µM | – | –
9 | COc1ccc2n[se]nc2c1 | > 100 µM | > 100 µM | – | > 100 µM | – | – | > 100 | > 100 µM | > 100 µM | –
10 | CN(C)CC/C(=N\Nc1ccc([N+](=O)[O-])cc1)c1ccccc1 | 27.2 µM | 18 µM | 20.5 µM | 15.2 µM | – | – | – | 20 µM | – | –
11 | Cc1ccc2nc(NC(=O)C(=O)C(C#N)c3nc4ccccc4s3)sc2c1 (stereo unspecified) | – | 70.1 µM | > 100 µM | > 100 µM | > 100 µM | – | > 100 | > 100 µM | 63.9 µM | –
12 | CCC[CH2][Sn]1([CH2]CCC)[O]C(=O)c2cccnc2[O]1 | 10.7 µM | 4.05 µM | – | 11.9 µM | 15.3 µM | – | 2.73 | 7.73 µM | 2.92 µM | GI50 (DLD-1 colon): 3.11 µM; GI50 (DMS 114 small cell lung): 1.95 µM; GI50 (KM20L2 colon): 3.96 µM; GI50 (M19-MEL melanoma): 4.26 µM; GI50 (RXF-631 renal): 1.43 µM; GI50 (SNB-78 CNS): 2.07 µM; GI50 (XF 498 CNS): 1.38 µM
13 | COc1cc(/C=C2/C(=O)N(C(=O)OCC(C)C)C(Cc3cc(OC)c(OC)c(C)c3OC)C(=O)N2Cc2ccccc2)c(OC)c(C)c1OC (stereo unspecified) | > 100 µM | > 100 µM | > 100 µM | > 100 µM | > 100 µM | – | > 100 | – | – | –
14 | O=C(O)C(/C=C/c1ccccc1)c1ccccc1 (stereo unspecified) | – | – | – | – | – | > 100 | – | – | – | –
15 | O=C(O)CNC(=O)c1ccc(-c2ccccc2)cc1 | – | – | – | – | – | > 100 | – | – | – | –
16 | O=[N+]([O-])O.[Cu+2].[NH-]CC[NH-].[NH-]CC[NH-] | – | – | – | – | – | > 10 | – | – | – | GI50 (MDA-N): > 10 µM
17 | O=C([CH-]C(=O)c1ccccc1)c1ccccc1.O=C([CH-]C(=O)c1ccccc1)c1ccccc1.[La+3].[OH-].[OH3+] | – | – | – | 68.7 µM | – | – | – | – | – | GI50 (KM20L2 colon): 22.4 µM
18 | COC(=O)/C(C)=C(/CCC1(C)OCCO1)O[Si](C)(C)C | > 100 µM | > 100 µM | > 100 µM | > 100 µM | > 100 µM | – | – | > 100 µM | > 100 µM | –
19 | COc1ccc(Br)c(N/N=C2\CCCNC2=O)c1 | > 100 µM | > 100 µM | > 100 µM | > 100 µM | > 100 µM | – | > 100 | > 100 µM | > 100 µM | –

Row | Structure (SMILES) | TGI (DLD-1 colon) | TGI (DMS 114 small cell lung) | TGI (HOP-18 NSCLC) | TGI (KM20L2 colon) | TGI (M19-MEL melanoma) | TGI (MDA-N) [µM] | TGI (RXF-631 renal) [µM] | TGI (SNB-78 CNS) | TGI (XF 498 CNS) | other results
20 | Cc1ccc(Nc2n[nH]c(=S)s2)cc1C | – | – | – | – | – | > 100 | – | – | – | –
21 | Oc1c(C(Nc2cccc3cccnc23)c2ccccc2)ccc2cccnc12 (stereo unspecified) | – | 15.6 µM | 93.2 µM | > 100 µM | > 100 µM | – | – | – | – | –
22 | CC(=O)CC(=O)OC1CC(C)CCC1C(C)C (stereo unspecified) | > 100 µM | > 100 µM | – | – | > 100 µM | – | > 100 | > 100 µM | > 100 µM | –
23 | COC(=O)C1(C)CCC(c2ccc(C)cc2)=C(CC(=O)O)C1 (stereo unspecified) | – | – | – | – | – | > 100 | – | – | – | –
24 | COc1c(C)c2c(c(O)c1C/C=C(\C)CCC(=O)O)C(=O)OC2 | > 100 µM | 78.3 µM | > 100 µM | – | > 100 µM | > 100 | – | – | – | –
25 | O=C1c2ccccc2C(O)(O)C1(O)C1(O)C(=O)c2ccccc2C1(O)O (stereo unspecified) | – | – | – | – | – | 48 | – | – | – | –
26 | Cc1cc(O)c(C(C)C)cc1S(=O)(=O)O (tested in a mixture with another compound) | > 100 µM | > 100 µM | – | > 100 µM | > 100 µM | – | – | > 100 µM | – | –
27 | Cc1ccc(S(=O)(=O)N/N=C/c2c(O)ccc3ccccc23)cc1 | – | – | – | – | – | > 100 | – | – | – | –
28 | CCc1cc(C(=O)OC)cn1C(=N)c1ccc(Cl)cc1 | > 100 µM | > 100 µM | > 100 µM | > 100 µM | > 100 µM | – | – | > 100 µM | > 100 µM | –
29 | OC(c1ccccc1)(c1ccccc1)c1ccncc1 | > 100 µM | > 100 µM | > 100 µM | > 100 µM | > 100 µM | – | – | > 100 µM | > 100 µM | –
30 | COc1ccc2nc3cccc([N+](=O)[O-])c3c(NCCCCCC(=O)O)c2c1 | – | – | – | – | – | 0.117 | – | – | – | GI50 (MDA-N): 0.0263 µM
31 | CCS(CC)(CC)CC1CCCC2=CCC(P(=O)(c3ccccc3)c3ccccc3)CC21 (stereo unspecified) | 28.7 µM | 24.8 µM | 40.3 µM | 25.2 µM | 36.5 µM | – | 31.5 | 37.1 µM | 17.4 µM | –
32 | COC1CC(OS(=O)(=O)c2ccc([N+](=O)[O-])cc2)C(OC(=O)c2ccccc2)C(C)O1 (stereo unspecified) | > 100 µM | – | > 100 µM | > 100 µM | > 100 µM | – | > 100 | > 100 µM | > 100 µM | –
33 | Cc1ccc(S(=O)(=O)OC2CSS(=O)CC2OS(=O)(=O)c2ccc(C)cc2)cc1 (stereo unspecified) | 23.6 µM | 32.2 µM | 37.6 µM | 32.6 µM | 30.5 µM | – | 30.4 | 58.9 µM | 26.6 µM | –
34 | O=[N+]([O-])c1cc(C(F)(F)F)cc([N+](=O)[O-])c1CCl | 4.65 µM | 1.95 µM | 3.6 µM | 8.72 µM | 3.64 µM | – | 10.4 | 10.6 µM | – | –
35 | CC(C)C1CC[C@@H](C)C[C@@]1(O)CC(N)=O (stereo partly specified) | > 100 µM | > 100 µM | > 100 µM | > 100 µM | > 100 µM | – | > 100 | > 100 µM | 0.856 µM | –
36 | CC(=O)OCC1OC(n2cnc(C(N)=S)c2N)C(OC(C)=O)C1OC(C)=O (stereo unspecified) | – | – | – | – | – | > 100 | – | – | – | –
37 | O=C(O)C(SC(=S)c1ccc(C(=S)SC(C(=O)O)c2ccccc2)cc1)c1ccccc1 (stereo unspecified) | > 100 µM | > 100 µM | – | – | – | – | > 100 | > 100 µM | > 100 µM | –
38 | COc1cc2c(c(OC)c1OC)-c1ccc(SC)c(=O)cc1C(CO)C2 (stereo unspecified) | – | – | > 100 µM | – | > 100 µM | – | > 100 | – | 0.605 µM | GI50 (DLD-1 colon): < 0.01 µM; GI50 (DMS 114 small cell lung): < 0.01 µM; GI50 (KM20L2 colon): < 0.01 µM; GI50 (M19-MEL melanoma): < 0.01 µM
